Measured values taken from patent publication US10717788B2, “Cyclodextrin functionalized nanoparticles for quenching bacterial communications” (University of South Carolina, priority 2014, dated 2020).

What was measured:
Vibrio fischeri [1] = assay: Growth studies: luminescence of Vibrio fischeri in vitro; assay type: cell-based
Vibrio fischeri [2] = assay: Quantification of gene expression during luminescence; assay type: cell-based
[3] = NMR diffusion experiments, binding affinity of cyclodextrin for N-octanoyl-homoserine lactone; conditions: based on dissociation constants calculated from the diffusion data
Procedure: To confirm that cyclodextrin was the active quenching agent in the model system, NMR diffusion experiments were performed.

## OC[C@H]1O[C@@H]2O[C@H]3[C@H](O)[C@@H](O)[C@@H](O[C@H]4[C@H](O)[C@@H](O)[C@@H](O[C@H]5[C@H](O)[C@@H](O)[C@@H](O[C@H]6[C@H](O)[C@@H](O)[C@@H](O[C@H]7[C@H](O)[C@@H](O)[C@@H](O[C@H]8[C@H](O)[C@@H](O)[C@@H](O[C@H]1[C@H](O)[C@H]2O)O[C@@H]8CO)O[C@@H]7CO)O[C@@H]6CO)O[C@@H]5CO)O[C@@H]4CO)O[C@@H]3CO [cyclodextrin, β-Cyclodextrin]
Vibrio fischeri [1]
  luminescence: reduce luminescence
Vibrio fischeri [2]
  production of autoinducers and luciferase (gene expression): decrease in the production of autoinducers and luciferase
[3]
  binding of N-octanoyl-homoserine lactone (complex formation): able to bind cyclodextrin and form a complex
